Publication PMC6208908, “Field template-based design and biological evaluation of new sphingosine kinase 1 inhibitors” (Breast Cancer Research and Treatment, 2018)
Marks after values point to notes of the source that are not given here.

Legend:
recombinant SK2 = molecular target: T1, recombinant SK2 (Homo sapiens, UniProt Q9NRA0); experiment: SK2 activity assay with recombinant SK2 (high salt), Lineweaver-Burk; assay type: biochemical; conditions: Lineweaver-Burk plot, high salt (Figure S8B)
T1 sequence (Q9NRA0 1-654): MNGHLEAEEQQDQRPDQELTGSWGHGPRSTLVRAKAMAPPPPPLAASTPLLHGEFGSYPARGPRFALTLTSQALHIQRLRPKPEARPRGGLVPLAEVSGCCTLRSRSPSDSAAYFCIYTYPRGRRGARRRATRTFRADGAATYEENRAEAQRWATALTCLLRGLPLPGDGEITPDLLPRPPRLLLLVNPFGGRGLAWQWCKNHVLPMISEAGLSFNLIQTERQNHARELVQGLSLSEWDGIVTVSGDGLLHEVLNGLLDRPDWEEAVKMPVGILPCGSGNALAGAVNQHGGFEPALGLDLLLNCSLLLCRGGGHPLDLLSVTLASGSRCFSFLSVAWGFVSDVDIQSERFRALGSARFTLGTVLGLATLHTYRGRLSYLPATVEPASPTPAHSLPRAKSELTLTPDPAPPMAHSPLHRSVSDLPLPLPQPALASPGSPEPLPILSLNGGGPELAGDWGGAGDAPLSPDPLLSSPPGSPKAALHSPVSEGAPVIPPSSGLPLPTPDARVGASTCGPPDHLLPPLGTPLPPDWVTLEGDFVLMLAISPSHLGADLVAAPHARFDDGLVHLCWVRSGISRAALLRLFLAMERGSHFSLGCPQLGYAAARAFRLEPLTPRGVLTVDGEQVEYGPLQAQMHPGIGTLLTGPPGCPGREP
Method: SK assay was performed using radiolabeling as previously described, in conditions favouring SK1 or SK2 activity as required.
SK1 activity was determined in the presence of triton X-100 and SK2 activity was measured in the presence of high salt concentrations, conditions that favour SK1 and SK2, respectively. […] Km for SK1 was 6.97 ± 1.20 µM, Vmax 98 ± 4 µM/min/mg protein and Ki for SK-F 0.46 ± 0.1 µM. […] Some SK inhibitors such as SKI-II were previously shown to induce proteasomal degradation of SK1 [48, 49].

SK1 in 4T1 cells = molecular target: T2, SK1 in 4T1 cells (Mus musculus, UniProt Q8CI15); experiment: SK1 activity in 4T1 cells in vitro (Figure S10); assay type: cell-based, murine
T2 construct: endogenous in cells; host or cells: 4T1

SK1 protein = SK1 protein level (Figure S9); assay type: cell-based
MDA-MB-231 cells = experiment: MTT cell viability / proliferation assay; assay type: cell-based, human; conditions: for IC50: Homo sapiens
Method: Cellular viability was measured using the 3-(4,5-dimethylthiazol-2-yl)-2,5-diphenyltetrazolium bromide (MTT; 5 mg/ml) colorimetric assay as already described.
Fig. 4 Effect of compounds SK-A to SK-F on breast cancer cell viability. MDA-MB-231 cells were incubated with 1, 2, 5 and 10 µM of compounds SK-A to SK-F for up to 120 h. Cell proliferation was measured using MTT assay. Columns, means of three independent experiments normalised to control; bars, SEM. (*p < 0.05; **p < 0.01; ^§p < 0.001). IC50 levels for SK-F for 72, 96 and 120 h were 7, 4.5 and 3 µM, respectively

[1] = Whole-body toxicity: body and organ weights, full blood count; assay type: in vivo, BALB/c nude mice; conditions: 5 mg/kg each drug i.p. twice a week for 2 weeks, 4T1 tumour-bearing mice
Method: (§1) Breast cancer allografts were established in 6–8-week-old BALB/c nude mice by injection of 10^6 4T1 cells into their mammary pad. Two weeks after implantation, mice were randomised into treatment groups (n = 6/group) and treated twice a week for 2 weeks with intraperitoneal injections of dimethyl sulfoxide (DMSO), 5 mg/kg DTX, 5 mg/kg SK-F, 5 mg/kg DTX + 5 mg/kg SK-F. One day after the last treatment, all mice were euthanized and blood was collected. Tumour long and short radii were measured using calipers and tumour volume (v) was calculated using the formula v = 4/3 πab^2 (a – long radius, b – short radius). Mice and individual organs were weighed and primary tumours were then processed for analysis of SK1 activity as described above. Full blood count and liver function test analysis was done in the Hammersmith hospital biochemical lab.
Tumour-bearing mice were divided into four groups (n = 6) and injected with: DMSO, 5 mg/kg DTX, 5 mg/kg SK-F, 5 mg/kg DTX + 5 mg/kg SK-F. Two weeks after the tumour cells inoculation, we began intraperitoneal injections of drug preparations and continued these twice a week for two weeks. Based on our previous studies, we have chosen relatively smaller doses of SK-F and DTX in order to investigate their combined effect and potential chemosensitisation of breast tumours to taxane therapies. In the control group, tumours grew progressively and rapidly (Fig. 5a). […] Five mg/kg DTX has induced a significant reduction in tumour volume to 281 mm^3. The biggest reduction in tumour volume to 159 mm^3 was observed when DTX was combined with SK-F (Fig. 5a). […] We have further investigated the effects of the used treatments on mouse whole-body toxicity. DTX has reduced body and liver weight, while SK-F had no significant effect (Table 1). DTX has induced significant anaemia and leukopenia, while the effects of SK-F were very moderate. In all cases, the effects of combined therapy were similar to DTX alone (Table 1). Liver function test was performed as a surrogate marker for chemotherapy-induced liver damage (Fig. 6). […] The combination therapy had similar toxicity profile to DTX alone, while exerting higher antitumour efficacy (Fig. 5a).

tumour SK1 = molecular target: T3, tumour SK1 (Mus musculus, UniProt Q8CI15); experiment: SK1 activity in 4T1 allograft tumours; assay type: in vivo, BALB/c nude mice; conditions: 5 mg/kg each drug i.p. twice a week for 2 weeks
T3 construct: primary tumours were then processed for analysis of SK1 activity as described above; from tissue; host or cells: 4T1 breast tumour allografts from BALB/c nude mice
Method: as §1
Fig. 5 Effect of compound SK-F on breast tumour growth and SK1 activity. […] Two weeks after implantation, mice were randomised into treatment groups (n = 6/group) and treated twice a week for 2 weeks with intraperitoneal injections of: DMSO, 5 mg/kg DTX, 5 mg/kg SK-F, 5 mg/kg DTX + 5 mg/kg SK-F. a Tumour volume in the different treatment groups of 4T1 breast cancer implanted in mouse mammary fat pad. b SK1 activity in tumours was measured using radiolabelling. […]

T2 sequence (Q8CI15 whole entry): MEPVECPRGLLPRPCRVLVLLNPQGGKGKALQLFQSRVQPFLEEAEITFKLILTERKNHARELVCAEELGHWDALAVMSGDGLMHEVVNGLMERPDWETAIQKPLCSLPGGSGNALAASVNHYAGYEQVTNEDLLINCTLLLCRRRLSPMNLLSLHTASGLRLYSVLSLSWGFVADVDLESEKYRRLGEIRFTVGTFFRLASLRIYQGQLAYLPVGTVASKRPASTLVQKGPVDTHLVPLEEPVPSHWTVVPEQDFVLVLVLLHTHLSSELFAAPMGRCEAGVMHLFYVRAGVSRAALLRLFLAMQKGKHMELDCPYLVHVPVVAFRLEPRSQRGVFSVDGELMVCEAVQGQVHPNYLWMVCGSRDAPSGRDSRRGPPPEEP
T3 sequence (Q8CI15 whole entry): as above

CCCCCCCCc1ccc(NC(=O)c2ccccc2)cc1 [SK-F]
inhibition of SK2 (recombinant SK2): no inhibition | SK1 activity in 4T1 cells (SK1 in 4T1 cells): significant inhibition | effect on SK1 protein (SK1 protein): did not induce any change | effect on MDA-MB-231 cancer cell proliferation (MDA-MB-231 cells; 1, 2, 5 and 10 µM, up to 120 h): highest effect | IC50 (MDA-MB-231 cells; MDA-MB-231, 72 h): 7 µM | IC50 (MDA-MB-231 cells; MDA-MB-231, 96 h): 4.5 µM | IC50 (MDA-MB-231 cells; MDA-MB-231, 120 h): 3 µM | Hb [1]: 90 ± 8^a % of control ± SEM | WCC [1]: 78 ± 7 % of control ± SEM | Weight of Body [1]: 91 ± 6^ns % of control ± SEM | Weight of Kidney [1]: 118.2 ± 3.6 % of control ± SEM | Weight of Liver [1]: 106.7 ± 5.5^a % of control ± SEM | Weight of Lungs [1]: 117.7 ± 5.6 % of control ± SEM | Weight of Spleen [1]: 111.2 ± 13.4^a % of control ± SEM | tumour SK1 activity (tumour SK1): significantly reduced
